Experimental data from patent US5948796A, “Benzo[B]thiophene compounds, intermediates, formulations, and methods” (Eli Lilly and Company, priority 1997, dated 1999).
Structures can show the parent of a compound that is named as a salt.

Legend:
[1] = tested on: ovariectomized (OVX) female Sprague Dawley rats, uterus; test: Uterine weight in ovariectomized rats (post-menopausal model); format: in vivo; settings: daily for 4 days, * p < 0.05
Procedure: (§1) In the examples illustrating the methods, a post-menopausal model was used in which effects of different treatments upon circulating lipids were determined.
(§2) Seventy-five day old female Sprague Dawley rats (weight range of 200 to 225 g) are obtained from Charles River Laboratories (Portage, Mich.). The animals are either bilaterally ovariectomized (OVX) or exposed to a Sham surgical procedure at Charles River Laboratories, and then shipped after one week. Upon arrival, they are housed in metal hanging cages in groups of 3 or 4 per cage and have ad libitum access to food (calcium content approximately 0.5%) and water for one week. Room temperature is maintained at 22.2°±1.7° C. with a minimum relative humidity of 40%. The photoperiod in the room is 12 hours light and 12 hours dark.
(§3) Dosing Regimen Tissue Collection. After a one week acclimation period (therefore, two weeks post-OVX) daily dosing with test compound is initiated. 17α-ethynyl estradiol or the test compound are given orally, unless otherwise stated, as a suspension in 1% carboxymethylcellulose or dissolved in 20% cyclodextrin. Animals are dosed daily for 4 days. Following the dosing regimen, animals are weighed and anesthetized with a ketamine: Xylazine (2:1, V:V) mixture and a blood sample is collected by cardiac puncture. The animals are then sacrificed by asphyxiation with CO2, the uterus is removed through a midline incision, and a wet uterine weight is determined.
(§4) In accordance with the above procedures, compounds of the present invention and ethynyl estradiol (EE2) in 20% hydroxypropyl β-cyclodextrin are orally administered to test animals.

Eosinophil peroxidase = test: Uterine Eosinophil Peroxidase (EPO) Assay in ovariectomized rats; format: in vivo, female Sprague Dawley rats; settings: daily for 4 days, OVX rats, * p < 0.05
Procedure: as §1, §2, §3
Uterine Eosinophil Peroxidase (EPO) Assay. Uteri are kept at 4° C. until time of enzymatic analysis. The uteri are then homogenized in 50 volumes of 50 mM Tris buffer (pH-8.0) containing 0.005% Triton X-100. Upon addition of 0.01% hydrogen peroxide and 10 mM O-phenylenediamine (final concentrations) in Tris buffer, increase in absorbance is monitored for one minute at 450 nm. The presence of eosonophils in the uterus is an indication of estrogenic activity of a compound. The maximal velocity of a 15 second interval is determined over the initial, linear portion of the reaction curve.
as §4

[2] = tested on: MCF-7 breast adenocarcinoma cells; test: MCF-7 Proliferation Assay; format: cell-based; settings: Homo sapiens, MCF7; MCF-7 cells; 48 hours; tritiated thymidine pulse 4 hours
Procedure: As evidence of the current invention treat estrogen dependent cancer, the following assay was performed.
MCF-7 Proliferation Assay
MCF-7 breast adenocarcinoma cells (ATCC HTB 22) were maintained in MEM (minimal essential medium, phenol red-free, Sigma, St. Louis, Mo.) supplemented with 10% fetal bovine serum (FBS) (V/V), L-glutamine (2 mM), sodium pyruvate (1 mM), HEPES {(N-[2-hydroxyethyl]piperazine-N'-[2-ethanesulfonic acid]10 mM}, non-essential amino acids and bovine insulin (1 ug/mL) (maintenance medium). Ten days prior to assay, MCF-7 cells were switched to maintenance medium supplemented with 10% dextran coated charcoal stripped fetal bovine serum (DCC-FBS) assay medium) in place of 10% FBS to deplete internal stores of steroids. MCF-7 cells were removed from maintenance flasks using cell dissociation medium [Ca++/Mg++ free HBSS (phenol red-free) supplemented with 10 mM HEPES and 2 mM EDTA]. Cells were washed twice with assay medium and adjusted to 80,000 cells/mL. Approximately […] (8,000 cells) were added to flat-bottom microculture wells (Costar 3596) and incubated at 37° C. in a 5% CO2 humidified incubator for 48 hours to allow for cell adherence and equilibration after transfer. […] Samples were counted by liquid scintillation using a Wallac BetaPlace β counter. […]

serum cholesterol = test: Cholesterol Analysis (serum cholesterol in ovariectomized rats); format: in vivo, female Sprague Dawley rats; settings: daily for 4 days, OVX rats, * p < 0.05
Procedure: as §1, §2, §3
Cholesterol Analysis. Blood samples are allowed to clot at ambient temperature for 2 hours, and serum is obtained following centrifugation for 10 minutes at 3000 rpm. Serum cholesterol is determined using a Boehringer Mannheim Diagnostics high performance cholesterol assay. Briefly, the cholesterol is oxidized to cholest-4-en-3-one and hydrogen peroxide. The hydrogen peroxide is then reacted with phenol and 4-aminophenazone in the presence of peroxidase to produce a p-quinone imine dye, which is read spectrophotemetrically at 500 nm. Cholesterol concentration is then calculated against a standard curve.
as §4

## C#C[C@]1(O)CC[C@H]2[C@@H]3CCc4cc(O)ccc4[C@H]3CC[C@@]21C [EE2, 17α-ethynyl estradiol, reference compound]
[1]; dose printed "0." mg/kg PO
  Uterine Wt. (% Inc.), % increase versus the ovariectomized controls: 171.2%
Eosinophil peroxidase; dose printed "0." mg/kg PO
  Uterine EPO (Vmax): 142.4

## Cc1ccc2c(C(=O)c3ccc(OCCN4CCCCC4)cc3)c(-c3ccc(O)cc3)sc2c1 [Example 2, [2-(4-Hydroxyphenyl)-6-methylbenzo[b]thien-3-yl}[4-[2-(1-piperdinyl)ethoxy]phenyl]methanone Hydrochloride]
[2]
  IC50: 100 nM
Serum cholesterol; 0.1 mg/kg PO
  Serum Cholesterol (% Dec.), decrease versus ovariectomized controls: 16.9%
Serum cholesterol; 1 mg/kg PO
  Serum Cholesterol (% Dec.), decrease versus ovariectomized controls: 33.8%
Serum cholesterol; 10 mg/kg PO
  Serum Cholesterol (% Dec.), decrease versus ovariectomized controls: 21.6%
[1]; 0.1 mg/kg PO
  Uterine Wt. (% Inc.), % increase versus the ovariectomized controls: -9.0%
[1]; 1 mg/kg PO
  Uterine Wt. (% Inc.), % increase versus the ovariectomized controls: 23.9%
[1]; 10 mg/kg PO
  Uterine Wt. (% Inc.), % increase versus the ovariectomized controls: 29.0%
Eosinophil peroxidase; 0.1 mg/kg PO
  Uterine EPO (Vmax): 2.0
Eosinophil peroxidase; 1 mg/kg PO
  Uterine EPO (Vmax): 2.8
Eosinophil peroxidase; 10 mg/kg PO
  Uterine EPO (Vmax): 2.9

## COc1ccc(-c2sc3cc(C)ccc3c2C(=O)c2ccc(OCCN3CCCCC3)cc2)cc1 [Example 1, [2-(4-Methoxyphenyl)-6-methylbenzo[b]thien-3-yl}[4-[2-(1-piperdinyl)ethoxy]phenyl]methanone Hydrochloride]
[2]
  IC50: 500 nM
Serum cholesterol; 0.1 mg/kg PO
  Serum Cholesterol (% Dec.), decrease versus ovariectomized controls: -20.3%
Serum cholesterol; 1 mg/kg PO
  Serum Cholesterol (% Dec.), decrease versus ovariectomized controls: 17.2%
Serum cholesterol; 10 mg/kg PO
  Serum Cholesterol (% Dec.), decrease versus ovariectomized controls: 34.8%
[1]; 0.1 mg/kg PO
  Uterine Wt. (% Inc.), % increase versus the ovariectomized controls: -11.4%
[1]; 1 mg/kg PO
  Uterine Wt. (% Inc.), % increase versus the ovariectomized controls: -4.6%
[1]; 10 mg/kg PO
  Uterine Wt. (% Inc.), % increase versus the ovariectomized controls: 2.1%
Eosinophil peroxidase; 0.1 mg/kg PO
  Uterine EPO (Vmax): 1.4
Eosinophil peroxidase; 1 mg/kg PO
  Uterine EPO (Vmax): 1.6
Eosinophil peroxidase; 10 mg/kg PO
  Uterine EPO (Vmax): 5.2
